Assay results taken from PubChem BioAssay (NCI).
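At the GI50, growth is halved. TGI marks complete inhibition of growth.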

Key:
Assay in all cases: NCI-60 cell line screen, 384-well format
786-0 renal = test system: 786-0 renal
A498 renal = test system: A498 renal
A549 NSCLC = test system: A549 NSCLC
CAKI-1 renal = test system: CAKI-1 renal
CCRF-CEM leukemia = test system: CCRF-CEM leukemia
COLO 205 colon = test system: COLO 205 colon
DU-145 prostate = test system: DU-145 prostate
EKVX NSCLC = test system: EKVX NSCLC
HCC-2998 colon = test system: HCC-2998 colon
HCT-116 colon = test system: HCT-116 colon
HCT-15 colon = test system: HCT-15 colon
HOP-62 NSCLC = test system: HOP-62 NSCLC
HOP-92 NSCLC = test system: HOP-92 NSCLC
HS 578T breast = test system: HS 578T breast
K-562 leukemia = test system: K-562 leukemia
LOX IMVI melanoma = test system: LOX IMVI melanoma
M14 melanoma = test system: M14 melanoma
MALME-3M melanoma = test system: MALME-3M melanoma
MCF7 breast = test system: MCF7 breast
MDA-MB-231 breast = test system: MDA-MB-231 breast
MDA-MB-435 melanoma = test system: MDA-MB-435 melanoma
MDA-MB-468 breast = test system: MDA-MB-468 breast
MOLT-4 leukemia = test system: MOLT-4 leukemia
NCI-H226 lung = test system: NCI-H226 lung
NCI-H23 lung = test system: NCI-H23 lung
NCI-H322M lung = test system: NCI-H322M lung
NCI-H460 NSCLC = test system: NCI-H460 NSCLC
NCI-H522 lung = test system: NCI-H522 lung
NCI/ADR-RES ovarian = test system: NCI/ADR-RES ovarian
OVCAR-4 ovarian = test system: OVCAR-4 ovarian
OVCAR-8 ovarian = test system: OVCAR-8 ovarian
PC-3 prostate = test system: PC-3 prostate
RPMI-8226 leukemia = test system: RPMI-8226 leukemia
RXF 393 renal = test system: RXF 393 renal
SF-268 CNS = test system: SF-268 CNS
SK-MEL-2 melanoma = test system: SK-MEL-2 melanoma
SK-MEL-5 melanoma = test system: SK-MEL-5 melanoma
SK-OV-3 ovarian = test system: SK-OV-3 ovarian
SNB-19 CNS = test system: SNB-19 CNS
SNB-75 CNS = test system: SNB-75 CNS
SR leukemia = test system: SR leukemia
SW-620 colon = test system: SW-620 colon
T-47D breast = test system: T-47D breast
TK-10 renal = test system: TK-10 renal
U251 glioblastoma = test system: U251 glioblastoma
UACC-257 melanoma = test system: UACC-257 melanoma
UO-31 renal = test system: UO-31 renal

SMILES: O=C(c1ccccc1O)c1[nH]c(Cl)c(Cl)c1-n1c(C(=O)c2ccccc2O)cc(Cl)c1Cl
- GI50 ([…]-0 renal): 619 nM
- TGI (786-0 renal): 1920 nM
- GI50 (A498 renal): 399 nM
- TGI (A498 renal): 1760 nM
- GI50 (A549 NSCLC): 654 nM
- TGI (A549 NSCLC): 2480 nM
- GI50 (CAKI-1 renal): 411 nM
- TGI (CAKI-1 renal): 2190 nM
- GI50 (CCRF-CEM leukemia): 240 nM
- TGI (CCRF-CEM leukemia): 705 nM
- GI50 (COLO 205 colon): 747 nM
- TGI (COLO 205 colon): 3800 nM
- GI50 (DU-145 prostate): 681 nM
- TGI (DU-145 prostate): 8400 nM
- GI50 (EKVX NSCLC): 230 nM
- TGI (EKVX NSCLC): 842 nM
- GI50 (HCC-2998 colon): 537 nM
- TGI (HCC-2998 colon): 1950 nM
- GI50 (HCT-116 colon): 248 nM
- TGI (HCT-116 colon): 930 nM
- GI50 (HCT-15 colon): 277 nM
- TGI (HCT-15 colon): 1040 nM
- GI50 (HOP-62 NSCLC): 552 nM
- TGI (HOP-62 NSCLC): 1590 nM
- GI50 (HOP-92 NSCLC): 458 nM
- TGI (HOP-92 NSCLC): 1160 nM
- GI50 (HS 578T breast): 157 nM
- TGI (HS 578T breast): 440 nM
- GI50 (K-562 leukemia): 238 nM
- TGI (K-562 leukemia): 3070 nM
- GI50 (LOX IMVI melanoma): 833 nM
- TGI (LOX IMVI melanoma): 2330 nM
- GI50 (M14 melanoma): 682 nM
- TGI (M14 melanoma): 2380 nM
- GI50 (MALME-3M melanoma): 670 nM
- TGI (MALME-3M melanoma): 2170 nM
- GI50 (MCF7 breast): 263 nM
- TGI (MCF7 breast): 1230 nM
- GI50 (MDA-MB-231 breast): 424 nM
- TGI (MDA-MB-231 breast): 1450 nM
- GI50 (MDA-MB-435 melanoma): 801 nM
- TGI (MDA-MB-435 melanoma): 3050 nM
- GI50 (MDA-MB-468 breast): 13 nM
- TGI (MDA-MB-468 breast): 267 nM
- GI50 (MOLT-4 leukemia): 301 nM
- TGI (MOLT-4 leukemia): 768 nM
- GI50 (NCI-H226 lung): 634 nM
- TGI (NCI-H226 lung): 1890 nM
- GI50 (NCI-H23 lung): 220 nM
- TGI (NCI-H23 lung): 610 nM
- GI50 (NCI-H322M lung): 302 nM
- TGI (NCI-H322M lung): 1020 nM
- GI50 (NCI-H460 NSCLC): 288 nM
- TGI (NCI-H460 NSCLC): 938 nM
- GI50 (NCI-H522 lung): 174 nM
- TGI (NCI-H522 lung): 536 nM
- GI50 (NCI/ADR-RES ovarian): 384 nM
- TGI (NCI/ADR-RES ovarian): 1270 nM
- GI50 (OVCAR-4 ovarian): 936 nM
- TGI (OVCAR-4 ovarian): 4790 nM
- GI50 (OVCAR-8 ovarian): 276 nM
- TGI (OVCAR-8 ovarian): 959 nM
- GI50 (PC-3 prostate): 292 nM
- TGI (PC-3 prostate): 978 nM
- GI50 (RPMI-8226 leukemia): 196 nM
- TGI (RPMI-8226 leukemia): 388 nM
- GI50 (RXF 393 renal): 600 nM
- TGI (RXF 393 renal): 2120 nM
- GI50 (SF-268 CNS): 116 nM
- TGI (SF-268 CNS): 871 nM
- GI50 (SK-MEL-2 melanoma): 333 nM
- TGI (SK-MEL-2 melanoma): 922 nM
- GI50 (SK-MEL-5 melanoma): 417 nM
- TGI (SK-MEL-5 melanoma): 913 nM
- GI50 (SK-OV-3 ovarian): 641 nM
- TGI (SK-OV-3 ovarian): 2210 nM
- GI50 (SNB-19 CNS): 373 nM
- TGI (SNB-19 CNS): 3960 nM
- GI50 (SNB-75 CNS): 487 nM
- TGI (SNB-75 CNS): 2440 nM
- GI50 (SR leukemia): 340 nM
- TGI (SR leukemia): 1100 nM
- GI50 (SW-620 colon): 367 nM
- TGI (SW-620 colon): 1540 nM
- GI50 (T-47D breast): 218 nM
- TGI (T-47D breast): 883 nM
- GI50 (TK-10 renal): 386 nM
- TGI (TK-10 renal): 4500 nM
- GI50 (U251 glioblastoma): 331 nM
- TGI (U251 glioblastoma): 1130 nM
- GI50 (UACC-257 melanoma): 461 nM
- TGI (UACC-257 melanoma): 1650 nM
- GI50 (UO-31 renal): 493 nM
- TGI (UO-31 renal): 1820 nM
